# Measured values reported in patent publication US11976280B2, “SMAC/Diablo inhibitors useful for treating cancer” (THE NATIONAL INSTITUTE FOR BIOTECHNOLOGY IN THE NEGEV LTD., priority 2017, dated 2024).
# d = 2'-deoxy (DNA); r = 2'-OH (RNA)
# Test system: A549 cells-derived tumors
# Experiment: Next-generation sequencing (NGS) of si-NT- and si-hSMAC-A-treated tumors
# Assay type: in vivo, human
# Experimental: Libraries were prepared by the INCPM-RNA-seq unit (Weizmann Institute, Israel). Briefly, polyA fraction (mRNA) was purified from 500 ng of total RNA, isolated as above, followed by fragmentation and generation of double stranded cDNA. End repair, a base addition, adapter ligation and PCR amplification steps were performed according to established methods. Libraries were evaluated by Qubit and TapeStation. Sequencing libraries were constructed with barcodes to allow multiplexing of 20 samples in one lane. Between 22 and 26 million reads single-end 60-bp reads were sequenced per sample on Illumina HiSeq 2500 V4 instrument.
# Bioinformatics analyses were carried out at the Bioinformatics Core Facility at the National Institute for Biotechnology in the Negev, Ben-Gurion University. Raw sequence reads were assessed for quality using FASTQC and further trimmed for removal of remaining adaptors and low quality bases using Trimmomatic. The trimmed reads from each sample were separately aligned to the human and mouse genomes (GRCh38 and GRCm38.75, respectively) using STAR v2.3.0 with default settings. An average of 23.7±0.8 million reads per sample was obtained. Of these, an average of 13, 2.6, 7.8 and 0.3 million reads were mapped to human only, mouse only, both human and mouse, and none of them, respectively. After rejection of multi-mapped reads, a total of 11.5±2.5 human-specific, uniquely mapped reads, and 2.3±1.7 mouse-specific, uniquely mapped reads were subjected for further analysis. The number of aligned reads per gene per sample were counted using HTSeq count with “intersection-nonempty” (to handle reads that overlap with more than one gene) and “no stranded” as parameters. The other parameters were set to their default. Normalization and statistical analysis for differential expression were carried out using DESeq2 v1.6.3. Fold change values were converted to linear scale, with a minus sign indicating down-regulation.
# Differentially expressed genes were defined as those having a p-value<0.05, and linear fold change>1.5 and <−1.5. Functional analysis was performed using the Gene Ontology system, DAVID and Expander software tools.
# NGS was used to investigate changes in patterns of gene expression in si-NT-TTs and si-hSMAC-A-TTs (FIG. 10, and Tables 3-5). […] As si-hSMAC is human-specific, any effect on mouse gene expression must be mediated by the human tumor cells.
# The major functional groups were changes were seen are presented below.
# [1] = vs si-NT-TTs, ENDOPLASMIC AND GOLGI LUMENS
# [2] = vs si-NT-TTs, ENDOPLASMIC AND GOLGI LUMENS / METABOLISM RELATED ENZYMES
# [3] = vs si-NT-TTs, ER AND MITOCHONDRIA
# [4] = vs si-NT-TTs, EXTRACELLULAR MATRIX
substance,measurement,setting,value
"si-hSMAC-A: siRNA to human SMAC/Diablo; sense 5′AAGCGGUGUUUCUCAGAAUUGtt3′ (SEQ ID NO:20), antisense 5′AACAAUUCUGAGAAACCCGCtt3′ (SEQ ID NO:21) (sense AAGCGGUGUUUCUCAGAAUUGTT; antisense AACAAUUCUGAGAAACCCGCTT; sense: sugars from the 5' end r21 d2, backbone not given here; antisense: sugars from the 5' end r20 d2, backbone not given here)","Fold change, ACKR3-atypical chemokine receptor 3 gene expression","NGS, si-hSMAC-A- vs si-NT-treated A549 cells-derived tumors, gene ACKR3",−2.2
same,"Fold change, C5-complement component 5 gene expression","NGS, si-hSMAC-A- vs si-NT-treated A549 cells-derived tumors, gene C5",−1.7
same,"Fold change, C5AR1 (CD88)-complement component 5a receptor 1 gene expression","NGS, si-hSMAC-A- vs si-NT-treated A549 cells-derived tumors, gene C5AR1",−1.7
same,"Fold change, CCL24-chemokine (C-C motif) ligand 24 gene expression","NGS, si-hSMAC-A- vs si-NT-treated A549 cells-derived tumors, gene CCL24",1.9
same,"Fold change, CCL28-chemokine (C-C motif) ligand 28 gene expression","NGS, si-hSMAC-A- vs si-NT-treated A549 cells-derived tumors, gene CCL28",1.9
same,"Fold change, CD274-(PD-L1) molecule gene expression","NGS, si-hSMAC-A- vs si-NT-treated A549 cells-derived tumors, gene CD274",−1.9
same,"Fold change, CREB3L3-CAMP responsive element binding protein 3-like 3 gene expression","NGS, si-hSMAC-A- vs si-NT-treated A549 cells-derived tumors, gene CREB3L3",2.0
same,"Fold change, CX3CL1-chemokine (C-X3-C motif) ligand 1 gene expression","NGS, si-hSMAC-A- vs si-NT-treated A549 cells-derived tumors, gene CX3CL1",1.6
same,"Fold change, GAS6-growth arrest-specific 6 gene expression","NGS, si-hSMAC-A- vs si-NT-treated A549 cells-derived tumors, gene GAS6",−1.7
same,"Fold change, IL1R1-interleukin 1 receptor, type I gene expression","NGS, si-hSMAC-A- vs si-NT-treated A549 cells-derived tumors, gene IL1R1",−1.6
same,"Fold change, IL6-interleukin 6 gene expression","NGS, si-hSMAC-A- vs si-NT-treated A549 cells-derived tumors, gene IL6",−2.5
same,"Fold change, IL18BP-interleukin 18 binding protein gene expression","NGS, si-hSMAC-A- vs si-NT-treated A549 cells-derived tumors, gene IL18BP",−1.6
same,"Fold change, IL27RA-interleukin 27 receptor, alpha gene expression","NGS, si-hSMAC-A- vs si-NT-treated A549 cells-derived tumors, gene IL27RA",−1.6
same,"Fold change, IRF6-interferon regulatory factor 6 gene expression","NGS, si-hSMAC-A- vs si-NT-treated A549 cells-derived tumors, gene IRF6",1.6
same,"Fold change, LBP-lipopolysaccharide binding protein gene expression","NGS, si-hSMAC-A- vs si-NT-treated A549 cells-derived tumors, gene LBP",−2.1
same,"Fold change, MRC2 (ENDO180)-mannose receptor, C type 2 gene expression","NGS, si-hSMAC-A- vs si-NT-treated A549 cells-derived tumors, gene MRC2",−1.7
same,"Fold change, OSMR-oncostatin M receptor gene expression","NGS, si-hSMAC-A- vs si-NT-treated A549 cells-derived tumors, gene OSMR",−1.7
same,"Fold change, PROC-protein C gene expression","NGS, si-hSMAC-A- vs si-NT-treated A549 cells-derived tumors, gene PROC",1.8
same,"Fold change, PTGS2 (Cox-2)-prostaglandin-endoperoxide synthase 2 gene expression","NGS, si-hSMAC-A- vs si-NT-treated A549 cells-derived tumors, gene PTGS2",−1.8
same,"Fold change, TLR3-toll-like receptor 3 gene expression","NGS, si-hSMAC-A- vs si-NT-treated A549 cells-derived tumors, gene TLR3",−1.7
same,"Fold change, TNFAIP6 (TSG6) gene expression","NGS, si-hSMAC-A- vs si-NT-treated A549 cells-derived tumors, gene TNFAIP6",−1.6
same,"Fold change, TNFSF14 (LIGHT) gene expression","NGS, si-hSMAC-A- vs si-NT-treated A549 cells-derived tumors, gene TNFSF14",−1.8
same,expression of genes associated with inflammation and the tumor microenvironment,in vivo,reduction
same,number of human genes down-regulated,in vivo,~242
same,number of human genes up-regulated,in vivo,about 186
same,Fold change ACKR3,"vs si-NT-TTs, CELL MEMBRANE",−2.2 fold
same,Fold change BAMBI,"vs si-NT-TTs, CELL MEMBRANE",1.7 fold
same,Fold change C5AR1 (CD88),"vs si-NT-TTs, CELL MEMBRANE",−1.7 fold
same,Fold change CDH3,"vs si-NT-TTs, CELL MEMBRANE",1.7 fold
same,Fold change CLDN4,"vs si-NT-TTs, CELL MEMBRANE",2.4 fold
same,Fold change CLMP,"vs si-NT-TTs, CELL MEMBRANE",−1.7 fold
same,Fold change CNTNAP2,"vs si-NT-TTs, CELL MEMBRANE",−1.8 fold
same,Fold change DSC2,"vs si-NT-TTs, CELL MEMBRANE",1.6 fold
same,Fold change EMP1,"vs si-NT-TTs, CELL MEMBRANE",1.8 fold
same,Fold change ITGA1 (CD49a),"vs si-NT-TTs, CELL MEMBRANE",−1.9 fold
same,Fold change TNS1,"vs si-NT-TTs, CELL MEMBRANE",−1.6 fold
same,Fold change ABCC6,[1],−2.3 fold
same,Fold change AGR3,[1],4.1 fold
same,Fold change AHCYL2,[1],−1.7 fold
same,Fold change BACE1,[1],−1.5 fold
same,Fold change CEMIP,[1],−3.6 fold
same,Fold change CHERP,[1],−1.7 fold
same,Fold change CLGN,[1],−1.9 fold
same,Fold change COX10-AS1,[1],−2.1 fold
same,Fold change CYP26B1,[1],−1.8 fold
same,Fold change FAM20A,[1],−4.4 fold
same,Fold change FOXRED2,[1],−1.5 fold
same,Fold change ITPR1,[1],−1.7 fold
same,Fold change NCK2,[1],2.0 fold
same,Fold change P4HA3,[1],−1.9 fold
same,Fold change PCSK5,[1],−2.3 fold
same,Fold change PPAP2B,[1],−1.8 fold
same,Fold change PTGS2 (COX-2),[1],−1.8 fold
same,Fold change RIC3,[1],−2.7 fold
same,Fold change RYR1,[1],2.5 fold
same,Fold change SEC61G,[1],1.8 fold
same,Fold change TM4SF20,[1],−1.7 fold
same,Fold change TMEM147-AS,[1],−1.7 fold
same,Fold change UGT1A7,[1],−3.5 fold
same,Fold change UGT1A9,[1],−17.2 fold
same,Fold change ACAD10,[2],−1.7 fold
same,Fold change H6PD (GDH),[2],−1.6 fold
same,Fold change KLK6,[3],25.83 fold
same,Fold change SGK1,[3],−1.7 fold
same,Fold change CD9 (TSPAN29),"vs si-NT-TTs, EXOSOMES",1.5 fold
same,Fold change CD63 (TSPAN30),"vs si-NT-TTs, EXOSOMES",3.5 fold
same,Fold change CD274 (PD-L1),"vs si-NT-TTs, EXOSOMES",−1.9 fold
same,Fold change CEACAM5 (CD66e),"vs si-NT-TTs, EXOSOMES",2.2 fold
same,Fold change EPCAM,"vs si-NT-TTs, EXOSOMES",2.7 fold
same,Fold change FSTL1,"vs si-NT-TTs, EXOSOMES",−1.8 fold
same,Fold change GAS6,"vs si-NT-TTs, EXOSOMES",−1.7 fold
same,Fold change GP1BA,"vs si-NT-TTs, EXOSOMES",−1.7 fold
same,Fold change HSPG2 (Perlecan),"vs si-NT-TTs, EXOSOMES",−1.7 fold
same,Fold change IGFBP7,"vs si-NT-TTs, EXOSOMES",−1.8 fold
same,Fold change NID2,"vs si-NT-TTs, EXOSOMES",−2.1 fold
same,Fold change RAB17,"vs si-NT-TTs, EXOSOMES",1.9 fold
same,Fold change TSPAN8,"vs si-NT-TTs, EXOSOMES",1.6 fold
same,Fold change TSPAN13,"vs si-NT-TTs, EXOSOMES",1.8 fold
same,Fold change VAMP8,"vs si-NT-TTs, EXOSOMES",1.9 fold
same,Fold change CANT1,"vs si-NT-TTs, EXOSOMES / METABOLISM RELATED ENZYMES",1.5 fold
same,Fold change ABI3BP (TARSH),[4],−2.4 fold
same,Fold change ADAMTS9,[4],−2.2 fold
same,Fold change BMP2,[4],−1.8 fold
same,Fold change BMPER,[4],−1.7 fold
same,Fold change CCBE1,[4],−2.7 fold
same,Fold change COL4A1,[4],−2.2 fold
same,Fold change COL4A2,[4],−1.8 fold
same,Fold change COL5A1,[4],−1.5 fold
same,Fold change COL12A1,[4],−1.5 fold
same,Fold change COL17A1 (BP180),[4],2.1 fold
same,Fold change EDIL3 (Del1),[4],−2.5 fold
